Tests used:
[1] = biological target: Vascular endothelial growth factor receptor 3 (Homo sapiens) (UniProt P35916); test: Inhibition of human Flt4 assessed as enzyme activity at 1 uM relative to control; parameters: scale not given: the % may be the effect or the level left
[2] = biological target: Serine/threonine-protein kinase PLK2 (Homo sapiens) (UniProt Q9NYY3); test: Inhibition of human Plk2 assessed as enzyme activity at 1 uM relative to control; parameters: scale not given: the % may be the effect or the level left
[3] = biological target: Tyrosine-protein kinase Lck (Homo sapiens) (UniProt P06239); test: Inhibition of human Lck assessed as enzyme activity at 1 uM relative to control; parameters: scale not given: the % may be the effect or the level left
[4] = biological target: Ephrin type-B receptor 3 (Homo sapiens) (UniProt P54753); test: Inhibition of human EphB3 assessed as enzyme activity at 1 uM relative to control; parameters: scale not given: the % may be the effect or the level left
[5] = biological target: AMP-activated protein kinase (AMPK) alpha-1/beta-1/gamma-1 (Homo sapiens) (UniProt P54619+Q9Y478+Q13131); test: Inhibition of human AMPKA1/B1/G1 assessed as enzyme activity at 1 uM relative to control; format: protein-complex assay; parameters: scale not given: the % may be the effect or the level left
[6] = biological target: cAMP-dependent protein kinase catalytic subunit PRKX (Homo sapiens) (UniProt P51817); test: Inhibition of human PrKX assessed as enzyme activity at 1 uM relative to control; parameters: scale not given: the % may be the effect or the level left
[7] = biological target: Protein kinase C delta type (Homo sapiens) (UniProt Q05655); test: Inhibition of human PKCdelta assessed as enzyme activity at 1 uM relative to control; parameters: scale not given: the % may be the effect or the level left
[8] = biological target: Calcium/calmodulin-dependent protein kinase type 1 (Homo sapiens) (UniProt Q14012); test: Inhibition of human CAMK1 assessed as enzyme activity at 1 uM relative to control; parameters: scale not given: the % may be the effect or the level left
[9] = biological target: Protein kinase C eta type (Homo sapiens) (UniProt P24723); test: Inhibition of human PKCeta assessed as enzyme activity at 1 uM relative to control; parameters: scale not given: the % may be the effect or the level left
[10] = biological target: Inhibitor of nuclear factor kappa-B kinase subunit beta (Homo sapiens) (UniProt O14920); test: Inhibition of human IKKbeta assessed as enzyme activity at 1 uM relative to control; parameters: scale not given: the % may be the effect or the level left
[11] = biological target: Ephrin type-B receptor 1 (Homo sapiens) (UniProt P54762); test: Inhibition of human EphB1 assessed as enzyme activity at 1 uM relative to control; parameters: scale not given: the % may be the effect or the level left
[12] = biological target: Serine/threonine-protein kinase MARK1 (Homo sapiens) (UniProt Q9P0L2); test: Inhibition of human MARK1 assessed as enzyme activity at 1 uM relative to control; parameters: scale not given: the % may be the effect or the level left
[13] = biological target: Tyrosine-protein kinase Fer (Homo sapiens) (UniProt P16591); test: Inhibition of human Fer assessed as enzyme activity at 1 uM relative to control; parameters: scale not given: the % may be the effect or the level left
[14] = biological target: Mitogen-activated protein kinase 9 (Homo sapiens) (UniProt P45984); test: Inhibition of human JNK2alpha2 assessed as enzyme activity at 1 uM relative to control; parameters: scale not given: the % may be the effect or the level left
[15] = biological target: Testis-specific serine/threonine-protein kinase 1 (Homo sapiens) (UniProt Q9BXA7); test: Inhibition of human TSSK1 assessed as enzyme activity at 1 uM relative to control; parameters: scale not given: the % may be the effect or the level left
[16] = biological target: BDNF/NT-3 growth factors receptor (Homo sapiens) (UniProt Q16620); test: Inhibition of human TrkB assessed as enzyme activity at 1 uM relative to control; parameters: scale not given: the % may be the effect or the level left
[17] = biological target: CDK3/Cyclin E (Homo sapiens) (UniProt P24864+Q00526); test: Inhibition of human CDK3/cyclinE assessed as enzyme activity at 1 uM relative to control; format: protein-complex assay; parameters: scale not given: the % may be the effect or the level left
[18] = biological target: Mast/stem cell growth factor receptor Kit (Homo sapiens) (UniProt P10721); test: Inhibition of human KIT assessed as enzyme activity at 1 uM relative to control; parameters: scale not given: the % may be the effect or the level left
[19] = biological target: Interleukin-1 receptor-associated kinase 4 (Homo sapiens) (UniProt Q9NWZ3); test: Inhibition of human IRAK4 assessed as enzyme activity at 1 uM relative to control; parameters: scale not given: the % may be the effect or the level left
[20] = AUC in mouse at 30 mg/kg, po; format: ADME, organism-based; parameters: dose 30 mg/kg, route oral; settings: plasma
[21] = biological target: Mitogen-activated protein kinase 11 (Homo sapiens) (UniProt Q15759); test: Inhibition of human p38beta assessed as enzyme activity at 1 uM relative to control; parameters: scale not given: the % may be the effect or the level left
[22] = biological target: Insulin receptor-related protein (Homo sapiens) (UniProt P14616); test: Inhibition of human IRR assessed as enzyme activity at 1 uM relative to control; parameters: scale not given: the % may be the effect or the level left
[23] = biological target: Serine/threonine-protein kinase Nek6 (Homo sapiens) (UniProt Q9HC98); test: Inhibition of human NEK6 assessed as enzyme activity at 1 uM relative to control; parameters: scale not given: the % may be the effect or the level left
[24] = biological target: Ribosomal protein S6 kinase alpha-6 (Homo sapiens) (UniProt Q9UK32); test: Inhibition of human Rsk4 assessed as enzyme activity at 1 uM relative to control; parameters: scale not given: the % may be the effect or the level left
[25] = biological target: Death-associated protein kinase 1 (Homo sapiens) (UniProt P53355); test: Inhibition of human DAPK1 assessed as enzyme activity at 1 uM relative to control; parameters: scale not given: the % may be the effect or the level left
[26] = biological target: Mitogen-activated protein kinase 8 (Homo sapiens) (UniProt P45983); test: Inhibition of human JNK1alpha1 assessed as enzyme activity at 1 uM relative to control; parameters: scale not given: the % may be the effect or the level left
[27] = biological target: Mitogen-activated protein kinase 13 (Homo sapiens) (UniProt O15264); test: Inhibition of human p38delta assessed as enzyme activity at 1 uM relative to control; parameters: scale not given: the % may be the effect or the level left
[28] = biological target: Dual specificity mitogen-activated protein kinase kinase 7 (Homo sapiens) (UniProt O14733); test: Inhibition of human MKK7 assessed as enzyme activity at 1 uM relative to control; parameters: scale not given: the % may be the effect or the level left
[29] = biological target: Serine/threonine-protein kinase DCLK2 (Homo sapiens) (UniProt Q8N568); test: Inhibition of human DCAMKL2 assessed as enzyme activity at 1 uM relative to control; parameters: scale not given: the % may be the effect or the level left
[30] = biological target: Rhodopsin kinase GRK7 (Homo sapiens) (UniProt Q8WTQ7); test: Inhibition of human GRK7 assessed as enzyme activity at 1 uM relative to control; parameters: scale not given: the % may be the effect or the level left
[31] = biological target: Tyrosine-protein kinase BTK (Homo sapiens) (UniProt Q06187); test: Inhibition of human BTK assessed as enzyme activity at 1 uM relative to control; parameters: scale not given: the % may be the effect or the level left
[32] = biological target: Eukaryotic elongation factor 2 kinase (Homo sapiens) (UniProt O00418); test: Inhibition of human eEF-2K assessed as enzyme activity at 1 uM relative to control; parameters: scale not given: the % may be the effect or the level left
[33] = Antitumor activity against human LOX cells expressing B-Raf V600E mutant xenografted in nude mouse assessed as tumor growth inhibition at 30 mg/kg qd for 4 days measured on day 8; format: functional; settings: read-out: TGI
[34] = biological target: Receptor-type tyrosine-protein kinase FLT3 (Homo sapiens) (UniProt P36888); test: Inhibition of human Flt3 assessed as enzyme activity at 1 uM relative to control; parameters: scale not given: the % may be the effect or the level left
[35] = biological target: Proto-oncogene tyrosine-protein kinase ROS (Homo sapiens) (UniProt P08922); test: Inhibition of human Ros assessed as enzyme activity at 1 uM relative to control; parameters: scale not given: the % may be the effect or the level left
[36] = biological target: Calcium/calmodulin-dependent protein kinase type 1D (Homo sapiens) (UniProt Q8IU85); test: Inhibition of human CAMK1d assessed as enzyme activity at 1 uM relative to control; parameters: scale not given: the % may be the effect or the level left
[37] = biological target: Cytoplasmic tyrosine-protein kinase BMX (Homo sapiens) (UniProt P51813); test: Inhibition of human Bmx assessed as enzyme activity at 1 uM relative to control; parameters: scale not given: the % may be the effect or the level left
[38] = biological target: Ephrin type-A receptor 8 (Homo sapiens) (UniProt P29322); test: Inhibition of human EphA8 assessed as enzyme activity at 1 uM relative to control; parameters: scale not given: the % may be the effect or the level left

Chain of Protein kinase C delta type (Homo sapiens) (Q05655 whole entry, looked up): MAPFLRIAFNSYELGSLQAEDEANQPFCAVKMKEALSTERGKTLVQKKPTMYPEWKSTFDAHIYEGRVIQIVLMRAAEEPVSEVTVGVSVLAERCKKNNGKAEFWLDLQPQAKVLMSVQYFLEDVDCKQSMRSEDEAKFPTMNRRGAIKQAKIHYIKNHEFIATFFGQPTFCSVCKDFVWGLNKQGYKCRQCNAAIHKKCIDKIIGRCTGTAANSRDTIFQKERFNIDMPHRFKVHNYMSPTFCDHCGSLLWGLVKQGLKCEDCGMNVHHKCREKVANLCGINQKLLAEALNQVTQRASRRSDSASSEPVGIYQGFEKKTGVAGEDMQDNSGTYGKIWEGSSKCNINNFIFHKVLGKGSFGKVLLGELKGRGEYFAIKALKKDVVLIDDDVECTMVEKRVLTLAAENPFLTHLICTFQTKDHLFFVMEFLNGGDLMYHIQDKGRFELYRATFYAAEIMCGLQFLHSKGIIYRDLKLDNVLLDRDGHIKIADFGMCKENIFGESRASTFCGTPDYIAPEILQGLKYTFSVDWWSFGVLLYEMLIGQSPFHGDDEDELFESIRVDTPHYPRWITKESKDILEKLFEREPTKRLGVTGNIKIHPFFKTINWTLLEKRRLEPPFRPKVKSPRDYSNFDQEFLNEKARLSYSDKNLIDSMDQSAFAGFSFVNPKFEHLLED
Chain of Mitogen-activated protein kinase 9 (Homo sapiens) (P45984 whole entry, looked up): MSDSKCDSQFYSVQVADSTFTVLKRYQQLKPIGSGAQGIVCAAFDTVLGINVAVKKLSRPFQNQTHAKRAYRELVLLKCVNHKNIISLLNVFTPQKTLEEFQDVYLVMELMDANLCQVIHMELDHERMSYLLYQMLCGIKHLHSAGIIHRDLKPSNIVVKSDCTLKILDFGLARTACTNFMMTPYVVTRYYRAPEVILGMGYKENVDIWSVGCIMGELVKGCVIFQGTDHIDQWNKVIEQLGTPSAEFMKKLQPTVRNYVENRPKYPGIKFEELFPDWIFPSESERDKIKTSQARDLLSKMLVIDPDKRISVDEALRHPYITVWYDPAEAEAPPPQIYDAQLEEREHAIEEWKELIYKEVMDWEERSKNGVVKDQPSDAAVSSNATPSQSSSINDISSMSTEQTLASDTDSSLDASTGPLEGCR
Chain of Tyrosine-protein kinase Fer (Homo sapiens) (P16591 whole entry, looked up): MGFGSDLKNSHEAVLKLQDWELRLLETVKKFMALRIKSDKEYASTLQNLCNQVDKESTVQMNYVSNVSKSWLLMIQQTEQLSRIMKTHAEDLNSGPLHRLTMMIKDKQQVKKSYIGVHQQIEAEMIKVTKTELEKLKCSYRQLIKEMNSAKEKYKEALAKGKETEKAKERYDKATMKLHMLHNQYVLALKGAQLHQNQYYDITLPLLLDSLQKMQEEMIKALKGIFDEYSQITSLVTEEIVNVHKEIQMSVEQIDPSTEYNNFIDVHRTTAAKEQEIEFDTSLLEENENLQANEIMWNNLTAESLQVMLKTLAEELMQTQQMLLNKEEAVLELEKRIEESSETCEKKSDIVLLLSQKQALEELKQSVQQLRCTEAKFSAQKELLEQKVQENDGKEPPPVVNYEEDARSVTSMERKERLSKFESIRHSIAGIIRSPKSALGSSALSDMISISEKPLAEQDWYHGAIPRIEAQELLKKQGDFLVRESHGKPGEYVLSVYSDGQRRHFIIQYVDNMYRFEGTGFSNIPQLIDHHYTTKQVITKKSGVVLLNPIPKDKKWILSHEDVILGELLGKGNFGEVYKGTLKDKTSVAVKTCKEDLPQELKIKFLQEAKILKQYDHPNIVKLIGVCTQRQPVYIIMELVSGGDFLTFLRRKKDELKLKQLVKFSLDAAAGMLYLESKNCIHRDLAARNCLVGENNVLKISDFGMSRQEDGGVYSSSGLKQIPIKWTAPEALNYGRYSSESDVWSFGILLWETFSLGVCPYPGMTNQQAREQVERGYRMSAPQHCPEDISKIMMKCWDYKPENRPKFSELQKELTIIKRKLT
Chain of Serine/threonine-protein kinase PLK2 (Homo sapiens) (Q9NYY3 whole entry, looked up): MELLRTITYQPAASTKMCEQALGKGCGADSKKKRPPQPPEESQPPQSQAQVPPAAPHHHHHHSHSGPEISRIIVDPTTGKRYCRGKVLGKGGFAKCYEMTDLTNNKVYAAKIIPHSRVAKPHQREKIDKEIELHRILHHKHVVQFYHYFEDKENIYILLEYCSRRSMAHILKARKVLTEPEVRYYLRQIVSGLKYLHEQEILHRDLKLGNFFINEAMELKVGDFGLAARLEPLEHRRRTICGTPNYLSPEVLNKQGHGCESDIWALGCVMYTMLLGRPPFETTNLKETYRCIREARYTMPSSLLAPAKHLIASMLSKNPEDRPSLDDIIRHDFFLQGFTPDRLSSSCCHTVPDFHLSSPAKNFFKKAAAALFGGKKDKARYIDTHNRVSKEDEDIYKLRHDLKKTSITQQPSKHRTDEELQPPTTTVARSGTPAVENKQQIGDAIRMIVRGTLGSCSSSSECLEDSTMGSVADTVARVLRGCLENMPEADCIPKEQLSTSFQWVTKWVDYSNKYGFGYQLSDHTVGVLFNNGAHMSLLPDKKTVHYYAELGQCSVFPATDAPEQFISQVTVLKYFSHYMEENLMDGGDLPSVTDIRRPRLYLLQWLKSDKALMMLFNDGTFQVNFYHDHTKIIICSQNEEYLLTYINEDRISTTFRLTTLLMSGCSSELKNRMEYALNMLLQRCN
Chain of Tyrosine-protein kinase Lck (Homo sapiens) (P06239 2-509 limits assumed): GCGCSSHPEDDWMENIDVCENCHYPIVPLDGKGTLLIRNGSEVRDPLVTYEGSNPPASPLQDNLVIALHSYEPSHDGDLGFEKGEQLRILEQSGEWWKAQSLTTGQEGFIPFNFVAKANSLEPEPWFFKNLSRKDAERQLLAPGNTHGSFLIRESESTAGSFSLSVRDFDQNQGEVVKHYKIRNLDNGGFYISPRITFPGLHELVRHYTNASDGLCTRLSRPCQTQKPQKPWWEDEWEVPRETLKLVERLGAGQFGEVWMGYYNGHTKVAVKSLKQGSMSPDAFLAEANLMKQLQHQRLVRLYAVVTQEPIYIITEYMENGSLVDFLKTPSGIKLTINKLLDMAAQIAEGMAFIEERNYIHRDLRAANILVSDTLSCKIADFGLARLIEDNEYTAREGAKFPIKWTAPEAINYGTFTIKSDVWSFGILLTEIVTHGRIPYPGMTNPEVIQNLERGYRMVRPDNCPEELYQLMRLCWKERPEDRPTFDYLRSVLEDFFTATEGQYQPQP
Chain of Mitogen-activated protein kinase 13 (Homo sapiens) (O15264 whole entry): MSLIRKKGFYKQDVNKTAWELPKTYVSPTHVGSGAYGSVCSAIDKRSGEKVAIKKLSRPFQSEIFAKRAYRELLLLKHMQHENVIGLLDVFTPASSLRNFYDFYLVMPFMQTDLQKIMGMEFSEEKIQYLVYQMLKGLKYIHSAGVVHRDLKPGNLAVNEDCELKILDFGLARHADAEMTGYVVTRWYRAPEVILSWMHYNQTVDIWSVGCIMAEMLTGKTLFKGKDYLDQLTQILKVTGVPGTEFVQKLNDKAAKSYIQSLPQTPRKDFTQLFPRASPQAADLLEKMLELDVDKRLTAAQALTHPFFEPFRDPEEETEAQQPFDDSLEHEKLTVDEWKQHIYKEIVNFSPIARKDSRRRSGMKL
Chain of Vascular endothelial growth factor receptor 3 (Homo sapiens) (P35916 whole entry): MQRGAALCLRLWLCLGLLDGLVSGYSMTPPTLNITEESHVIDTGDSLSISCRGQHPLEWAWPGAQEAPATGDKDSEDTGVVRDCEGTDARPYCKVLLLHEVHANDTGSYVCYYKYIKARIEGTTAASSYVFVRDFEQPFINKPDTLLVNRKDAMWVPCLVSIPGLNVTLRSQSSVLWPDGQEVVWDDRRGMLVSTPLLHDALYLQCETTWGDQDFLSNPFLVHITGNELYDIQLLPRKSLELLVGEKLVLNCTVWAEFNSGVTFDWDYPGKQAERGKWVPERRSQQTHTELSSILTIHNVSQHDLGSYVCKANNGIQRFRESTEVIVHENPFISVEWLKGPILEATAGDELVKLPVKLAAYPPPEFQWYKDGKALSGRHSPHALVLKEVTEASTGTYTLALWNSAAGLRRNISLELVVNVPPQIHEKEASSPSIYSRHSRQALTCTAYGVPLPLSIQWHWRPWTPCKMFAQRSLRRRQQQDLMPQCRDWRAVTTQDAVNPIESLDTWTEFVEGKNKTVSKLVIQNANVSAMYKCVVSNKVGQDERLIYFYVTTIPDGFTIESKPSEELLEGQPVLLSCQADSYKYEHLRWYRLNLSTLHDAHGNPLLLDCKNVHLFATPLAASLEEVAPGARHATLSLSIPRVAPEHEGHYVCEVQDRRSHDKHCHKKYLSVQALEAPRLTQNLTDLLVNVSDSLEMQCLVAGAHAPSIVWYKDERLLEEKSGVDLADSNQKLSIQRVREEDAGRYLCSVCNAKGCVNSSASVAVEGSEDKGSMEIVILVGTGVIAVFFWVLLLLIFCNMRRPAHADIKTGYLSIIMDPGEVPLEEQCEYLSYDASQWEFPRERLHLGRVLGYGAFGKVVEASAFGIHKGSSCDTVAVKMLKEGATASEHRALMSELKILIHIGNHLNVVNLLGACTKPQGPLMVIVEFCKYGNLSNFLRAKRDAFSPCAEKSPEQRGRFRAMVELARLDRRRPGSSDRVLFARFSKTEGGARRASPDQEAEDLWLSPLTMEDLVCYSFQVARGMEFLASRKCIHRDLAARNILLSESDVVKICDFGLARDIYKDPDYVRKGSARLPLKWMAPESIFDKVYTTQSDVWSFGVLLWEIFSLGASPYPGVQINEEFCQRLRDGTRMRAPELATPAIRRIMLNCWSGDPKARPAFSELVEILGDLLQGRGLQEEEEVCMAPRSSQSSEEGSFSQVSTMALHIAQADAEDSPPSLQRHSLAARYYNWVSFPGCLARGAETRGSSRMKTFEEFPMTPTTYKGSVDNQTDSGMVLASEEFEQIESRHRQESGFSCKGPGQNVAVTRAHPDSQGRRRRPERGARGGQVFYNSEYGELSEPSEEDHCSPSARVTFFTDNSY

CCCS(=O)(=O)Nc1cccc(Nc2ccc3ncn(C)c(=O)c3c2)c1C#N
Activity [1]: 79.5%
Activity [2]: 102%
Activity [3]: 87%
Activity [4]: 91.5%
Activity [5]: 95%
Activity [6]: 109%
Activity [7]: 100%
Activity [8]: 101%
Activity [9]: 101%
Activity [10]: 104%
Activity [11]: 101%
Activity [12]: 117%
Activity [13]: 114%
Activity [14]: 106%
Activity [15]: 98%
Activity [16]: 86%
Activity [17]: 106%
Activity [18]: 94.5%
Activity [19]: 106%
AUC [20]: 483 µM·h
Activity [21]: 110%
Activity [22]: 101%
Activity [23]: 116%
Activity [24]: 120%
Activity [25]: 102%
Activity [26]: 102%
Activity [27]: 96%
Activity [28]: 121%
Activity [29]: 148%
Activity [30]: 103%
Activity [31]: 102%
Activity [32]: 128%
inhibition in vivo at 30 mg/kg [33]: 99%
Activity [34]: 102%
Activity [35]: 108%
Activity [36]: 116%
Activity [37]: 91.5%
Activity [38]: 96%

From ChEMBL document CHEMBL3232845 (Bioorg Med Chem Lett, 2014)
